In assay [1] the target is T1, HDAC6 human recombinant (Homo sapiens, UniProt Q9UBN7).
T1 construct: purchased Calbiochem 382180
T1 sequence (Q9UBN7 1-1215): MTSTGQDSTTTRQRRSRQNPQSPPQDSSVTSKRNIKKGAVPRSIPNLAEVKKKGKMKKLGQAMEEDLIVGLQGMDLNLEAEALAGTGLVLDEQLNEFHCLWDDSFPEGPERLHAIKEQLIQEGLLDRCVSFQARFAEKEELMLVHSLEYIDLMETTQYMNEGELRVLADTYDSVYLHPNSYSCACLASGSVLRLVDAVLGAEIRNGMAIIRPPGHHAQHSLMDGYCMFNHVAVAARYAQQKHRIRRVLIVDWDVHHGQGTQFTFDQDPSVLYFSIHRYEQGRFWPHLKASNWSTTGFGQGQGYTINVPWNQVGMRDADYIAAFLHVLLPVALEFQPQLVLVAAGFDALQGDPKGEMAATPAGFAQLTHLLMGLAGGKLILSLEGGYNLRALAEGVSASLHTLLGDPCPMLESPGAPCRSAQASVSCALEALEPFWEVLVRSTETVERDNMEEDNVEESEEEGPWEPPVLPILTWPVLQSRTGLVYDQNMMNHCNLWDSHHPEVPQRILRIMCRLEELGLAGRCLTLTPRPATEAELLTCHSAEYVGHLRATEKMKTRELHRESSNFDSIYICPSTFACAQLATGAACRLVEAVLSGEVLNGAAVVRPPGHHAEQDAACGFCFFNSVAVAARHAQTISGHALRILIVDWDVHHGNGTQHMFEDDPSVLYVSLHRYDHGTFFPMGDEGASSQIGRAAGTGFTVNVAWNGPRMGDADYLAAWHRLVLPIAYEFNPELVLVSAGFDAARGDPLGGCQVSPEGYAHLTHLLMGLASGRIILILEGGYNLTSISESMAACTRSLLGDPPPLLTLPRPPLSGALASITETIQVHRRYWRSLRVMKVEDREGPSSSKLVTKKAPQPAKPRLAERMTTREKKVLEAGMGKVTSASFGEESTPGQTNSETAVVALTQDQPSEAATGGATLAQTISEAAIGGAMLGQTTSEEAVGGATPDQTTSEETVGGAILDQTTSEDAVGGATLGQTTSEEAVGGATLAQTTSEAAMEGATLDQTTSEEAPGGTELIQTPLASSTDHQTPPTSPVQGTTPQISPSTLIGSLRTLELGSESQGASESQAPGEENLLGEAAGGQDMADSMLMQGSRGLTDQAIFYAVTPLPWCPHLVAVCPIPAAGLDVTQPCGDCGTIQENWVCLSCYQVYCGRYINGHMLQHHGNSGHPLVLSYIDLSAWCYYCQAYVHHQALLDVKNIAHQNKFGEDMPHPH
Briefly: HDAC enzyme activity inhibition (in vitro), HDAC6 assay. Type of assay: biochemical. The conditions noted are these: samples at 0.1, 1, 10, 100 and 1000 nM; 37° C. 60 minutes; fluorescence Ex 390, Em 460; read-out: HDAC6 IC50. In short, it runs like this:
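Fluorescence (Ex 390, Em 460) read after a 37° C, 60 min enzyme reaction and a further 30 min developer step at 37° C. Uses recombinant human HDAC6; HDAC1 arm dosed at 100, 1000, 10000 nM.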

Assay [2] addresses T2, HDAC1 (Homo sapiens, UniProt Q13547).
T2 construct: purchased Enzolifesciences BML-AK511
Briefly: HDAC enzyme activity inhibition (in vitro), HDAC1 Fluorimetric Drug Discovery Assay Kit. Type of assay: biochemical. The conditions noted are these: samples at 100, 1000 and 10000 nM; 37° C. 60 minutes; fluorescence Ex 390, Em 460; read-out: HDAC1 IC50. In short, it runs like this:
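Fluorimetric read-out (Ex 390, Em 460) after a 60 min 37° C enzyme reaction and 30 min 37° C developer step. Tested levels: 0.1-1000 nM (0.1, 1, 10, 100, 1000) on recombinant human HDAC6; 100, 1000 and 10000 nM on HDAC1 kit enzyme.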

The structures appear in SMILES notation.

T2 sequence (Q13547 whole entry): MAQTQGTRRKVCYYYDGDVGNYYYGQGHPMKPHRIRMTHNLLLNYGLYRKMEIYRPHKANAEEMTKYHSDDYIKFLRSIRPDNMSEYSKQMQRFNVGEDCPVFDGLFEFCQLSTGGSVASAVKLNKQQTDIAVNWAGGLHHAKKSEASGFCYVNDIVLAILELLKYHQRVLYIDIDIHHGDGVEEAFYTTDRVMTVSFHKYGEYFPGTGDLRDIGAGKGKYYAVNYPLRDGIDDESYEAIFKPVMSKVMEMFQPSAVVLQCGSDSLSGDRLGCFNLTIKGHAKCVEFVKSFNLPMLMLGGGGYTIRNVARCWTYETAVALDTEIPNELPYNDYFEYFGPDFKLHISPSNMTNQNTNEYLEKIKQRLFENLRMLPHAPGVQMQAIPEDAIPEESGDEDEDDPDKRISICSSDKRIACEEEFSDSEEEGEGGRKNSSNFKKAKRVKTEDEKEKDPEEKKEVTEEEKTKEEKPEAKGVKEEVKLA

As usually defined, the IC50 is the concentration at which inhibition is half-maximal. In the case of `CC(C)N1CCN(c2cc(-c3cc4oc(=O)n(Cc5ccc(-c6nnc(C(F)F)o6)cn5)c4cc3F)ccn2)CC1` [Compound 365, 3-((5-(5-(difluoromethyl)-1,3,4-oxadiazole-2-yl)pyridine-2-yl)methyl)-5-fluoro-6-(2-(4-isopropylpiperazine-1-yl)pyridine-4-yl)benzo[d]oxazole-2(3H)-one], the IC50 in assay [1] is 33 nM; in assay [2], over 10000 nM.
The corresponding values for `O=c1oc2cc(-c3ccnc(N4CCN(C5COC5)CC4)c3)c(F)cc2n1Cc1ccc(-c2nnc(C(F)F)o2)cn1` [Compound 366, 3-((5-(5-(difluoromethyl)-1,3,4-oxadiazole-2-yl)pyridine-2-yl)methyl)-5-fluoro-6-(2-(4-(oxetan-3-yl)piperazine-1-yl)pyridine-4-yl)benzo[d]oxazole-2(3H)-one] are 52 nM and over 10000 nM.
On to `O=c1oc2cc(-c3ccnc(N4CCN(C5CCC5)CC4)c3)c(F)cc2n1Cc1ccc(-c2nnc(C(F)F)o2)cn1` [Compound 367, 6-(2-(4-cyclobutylpiperazine-1-yl)pyridine-4-yl)-3-((5-(5-(difluoromethyl)-1,3,4-oxadiazole-2-yl)pyridine-2-yl)methyl)-5-fluorobenzo[d]oxazole-2(3H)-one], for which the figures for the half-inhibitory concentration (IC50) in assay [1] and in assay [2] were 312 nM and over 10000 nM, respectively.
The corresponding values for `O=c1oc2cc(-c3ccnc(N4CCNCC4)c3)c(F)cc2n1Cc1ccc(-c2nnc(C(F)F)o2)cn1` [Compound 368, 3-((5-(5-(difluoromethyl)-1,3,4-oxadiazole-2-yl)pyridine-2-yl)methyl)-5-fluoro-6-(2-(piperazine-1-yl)pyridine-4-yl)benzo[d]oxazole-2(3H)-one] are 18 nM and over 10000 nM.
